# Measured values published in patent US9381193B2, “Contraceptive methods and compositions” (WASHINGTON UNIVERSITY, priority 2011, dated 2016).
# What was measured:
# human immortalized ESCs = details: 1 μM and 1.5 μM IA; 5-3H-glucose for four hours
# Experimental: In order to confirm inhibition of glycolysis, human immortalized ESCs were incubated in the presence of 5-^3H-glucose for four hours and the amount of ^3H2O production (H2O produced from the 5th hydrogen of glucose is a product of glycolysis) in ESCs exposed to different concentrations of IA was measured (FIG. 2b).
# human ESCs = system: human ESCs
# Experimental: (§1) Endometrial tissue was obtained from human uteri after hysterectomy conducted for benign disease or from endometrial biopsies. Informed consent was obtained from each patient before surgery and protocols were approved by the Human Research Protection Office of Washington University (HRPO#07-0949). Tissues were placed in HBSS and transported to the laboratory. hESCs were isolated and cultured as previously described. In vitro decidualization was performed as previously described with several changes. Cells were seeded in 6-well plates at 2×10^5 cells/well in DMEM:F12 without phenol red, supplemented with 2% heat-inactivated charcoal dextran-stripped calf serum (HyClone) and 50 μg/ml penicillin/streptomycin (Cambrex Bio Science). Cells were treated with 1 μM medroxyprogesterone-17-acetate (MPA) (Sigma) and 0.5 mM N^6, 2′-O-Dibutyryladenosine 3′,5′-cyclic monophosphate sodium salt (db-cAMP) (Sigma). Control samples received 0.1% ethanol vehicle control.
# ESC-T cells [1] = assay: In vitro decidualization of immortalized human ESC-T cells (decidualization marker mRNA, morphology); format: cell-based
# From the text: Decidualization in human cells was monitored by measuring the mRNA expression of two decidualization markers, PRL and IGFBP1.
# This NADP+ analog inhibits two enzymes in the PPP, G6PD and 6GPDH, which utilize NADP+ and convert it into NADPH.
# Two major results of the PPP are the production of ribose 5-phosphate and regeneration of NADPH. Production of ribose 5-phosphate is a central component in the de novo synthesis of ribonucleosides (RNs) and deoxyribonucleosides (DRNs). […] To address this question, ESC-T cultures were used and the differentiation media was supplemented with RNs and DRNs during treatment with PPP inhibitors.
# as §1
# Human immortalized ESC (ESC telomerase immortalized, ESC-T), were decidualized in vitro in the presence of 0, 2.5 or 5 mM GlcN for 9 days.
# human primary ESCs = assay: In vitro decidualization of human primary ESCs (decidualization marker mRNA); format: cell-based
# From the text: (§2) In order to confirm that this is not a side effect of ESC immortalization with telomerase overexpression in this human cell line, the effect of DHEA on decidualization of primary ESC cultures from mouse and human uteri was also investigated. Murine ESCs were isolated from the gravid uterus at 4 days post coitus and cultured in vitro for 3 days to induce decidualization as described in the Methods. […] The human primary ESCs were isolated from uteri following hysterectomy for benign disease as outlined in the Methods and cultured in decidualization media for 9 days.
# Control samples received 0.1% ethanol vehicle control.
# ESC-T cells [2] = assay: EdU incorporation proliferation assay; format: cell-based, human
# From the text: Other groups have shown that DHEA has anti-proliferative effects in a number of cell-lines and tissues. Thus, it was hypothesized that perhaps the PPP inhibitors prevent the proliferation of ESC-Ts and that this is an additional effect, independent of their role in decidualization inhibition. In a human uterus the stromal cells go through a cyclical oscillation between proliferation and differentiation, determined by the hormonal milieu. ESC-Ts in vitro remain in the proliferative state until they are exposed to differentiation media, which causes the cells to halt cell division and enter differentiation. Proliferation of ESC-T cells were monitored by EdU incorporation in vitro, which indicates entry into the S-phase of the cell cycle, in the absence of the differentiation hormones.
# Following 60 hr of the treatment indicated in the experiment, EdU was added to the culture medium at a concentration of […]. Cells were harvested and stained using the Click-iT EdU Flow Cytometry Kit (Invitrogen). Quantitative data were collected using a BD FACSCalibur flow cytometer (Becton Dickinson, San Jose, Calif.) and analyzed with FlowJo software (TreeSTar, Inc., Ashland, Oreg.). For confocal microscopy, the cells were stained on coverslips using the same protocol. Nuclei were counterstained with TOPRO-iodide (Molecular probes) at a 1:500 dilution. Cells were mounted on slides using Vectashield (Vector Labs) and visualized using a Nikon C1 microscope.
# ICR female mice [3] = assay: Intrauterine DHEA or 6-AN pellet and pregnancy outcome; format: in vivo, mouse
# Experimental: ICR female mice had either placebo (n=26), DHEA (1.5 mg/60 days)(n=20), or 6-AN pellets (150, 15, 1.5 mcg/60 days)(n=24) placed into the uterine horn after index delivery. Females were then mated and litter size was measured over the following 120 days post pellet. Mice were housed according to the Institutional Animal Care and use Committee and NIH guidelines. Day to first litter, number of litters, number of pups, average pups/litter were recorded. Serum DHEA levels were quantified (Alpco, Salem, N.H.). All pellets (placebo, DHEA, 6-AN) were custom-formulated (Innovative Research, Inc).
# murine ESCs = assay: In vitro decidualization of primary murine ESCs (Prp mRNA); format: cell-based, mouse; details: 3 days in vitro culture
# From the text: as §2
# For in vitro decidualization of ESCs, female mice were sacrificed at 4dpc. Pregnancy was confirmed by flushing dissected uterine horns and ostia with HBSS and observing for presence of blastocysts. Uteri confirmed for pregnancy were cut into 1 mm^3 pieces and incubated in Dulbecco's modified Eagle's Medium:F12 medium (DMEM:F12) without phenol red supplemented with 2 g/liter Collagenase Type I (Gibco) for 60-90 min at 37° C. Tissues were vortexed every 15 min during incubation. Following incubation, the solution was passed through a 40 μm sieve (BD Falcon) and centrifuged at 1100 rpm for 5 min. […]
# hESC-Ts = assay: Radiolabeled glucose flux (1-14C, 6-14C, 5-3H-glucose) in hESC-Ts; format: cell-based, human
# Experimental: For these experiments, hESCs immortalized via overexpression of telomerase (hESC-Ts) were used. […] The response of these cells to PPP inhibitors was also tested in order to confirm their similar dependence on the pathway for differentiation. In order to determine glucose flux through the various metabolic pathways in ESCs the metabolic fates of 1-^14C—, 6-^14C—, and 5-^3H-glucose was followed. hESC-Ts were incubated for 3 h with one of the radiolabled glucoses and production of ^14CO2 or ^3H2O was compared between the four treatment groups, control, decidualized, and decidualized with 2 μM or 5 μM 6-AN (FIG. 6). […] This was an indication that the flux through the TCA cycle or PPP was decreased in the inhibitor-treated ESCs. […] Therefore, inhibiting G6PD with 6-AN has no effect on TCA flux, but directly lowers the metabolism of glucose through PPP. The ratio of 1-C:6-C, which summarizes the relative preference of the PPP, can then be seen as decreasing in the presence of the inhibitor 6-AN.
# This indicates an increase in the amount of glucose entering glycolysis without continuing into the TCA cycle, possibly being converted into lactate.
# G6PDH = target: T1, G6PDH (Homo sapiens, UniProt P11413); assay: G6PDH activity in decidualized ESC-T cells exposed to GlcN; format: cell-based
# T1 construct: endogenous in cells; host or cells: human telomerase-immortalized endometrial stromal cells (ESC-T)
# T1 sequence (P11413 whole entry): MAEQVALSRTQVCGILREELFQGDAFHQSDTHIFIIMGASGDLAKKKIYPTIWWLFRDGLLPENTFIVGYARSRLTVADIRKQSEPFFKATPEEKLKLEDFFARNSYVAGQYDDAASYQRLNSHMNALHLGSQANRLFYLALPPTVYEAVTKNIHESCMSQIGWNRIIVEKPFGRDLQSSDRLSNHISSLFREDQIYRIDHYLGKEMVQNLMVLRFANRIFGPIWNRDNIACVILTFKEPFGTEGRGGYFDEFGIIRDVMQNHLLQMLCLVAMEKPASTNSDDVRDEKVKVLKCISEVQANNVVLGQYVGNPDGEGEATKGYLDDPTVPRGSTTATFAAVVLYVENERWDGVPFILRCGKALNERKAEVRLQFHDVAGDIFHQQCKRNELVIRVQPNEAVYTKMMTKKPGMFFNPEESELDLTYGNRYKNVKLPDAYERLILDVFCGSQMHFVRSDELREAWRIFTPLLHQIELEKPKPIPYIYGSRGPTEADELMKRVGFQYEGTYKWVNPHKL
# Experimental: (§3) Human immortalized ESC (ESC telomerase immortalized, ESC-T), were decidualized in vitro in the presence of 0, 2.5 or 5 mM GlcN for 9 days. […] Thus, it was concluded that perturbation of the PPP activity by GlcN might lead to the failure of ESC decidualization and thus possibly be one of the first non-hormonal inhibitors of decidualization. Finally, in vivo evidence is provided that female mice with a time-release GlcN pellet (15-1500 μg) implanted in one uterine horn, delivered fewer live pups per litter over a 60-day period than those with control pellet implantation (8.25 vs 4.23 pups/litter; FIG. 25).
# ICR female mice [4] = assay: Intrauterine time-release GlcN pellet and pups per litter; format: in vivo, mouse; details: time-release GlcN pellet (15-1500 μg) in one uterine horn; 60-day period
# Experimental: FIG. 25A-B graphically depicts decreased birth rate by glucosamine in ICR mice. 6 weeks old ICR female mice were implanted with a control or GlcN (15-1500 μg) pellet on one uterine horn and (A) with or (B) without the hysterectomy on the other uterine horn. Pups per litter in pellet implanted female mice crossed with males were recorded. **, P<0.01.
# as §3
# ESC-T = assay: Viability of ESC-T with GlcN (MTT assay and flow cytometry); format: cell-based, human; details: 0, 2.5 or 5 mM GlcN for 9 days
# Experimental: as §3
# [5] = decidualized cells with 2 μM or 5 μM 6-AN, 3 h
structure (smiles),measurement,setting,value
"O=C(O)CI [IA, Iodoacetate]",Reduction of flux of glucose through glycolysis,human immortalized ESCs,40%
same,Decidualization assessed by Prl marker expression,human ESCs; IA concentrations below the toxic threshold,not affected
same,Concentration inducing cell death,human ESCs; within 24 hr of administration,≥ 2 µM
"NC(=O)c1ccc(N)nc1 [6-AN, 6-aminonicotinamide]",Expression of PRL and IGFBP,"ESC-T cells [1]; 10 μM 6AN, day 3 to day 9 in culture",inhibited
same,Expression of PRL and IGFBP1,human primary ESCs; 9 days in decidualization media,decreased
same,EdU-positive nuclei vs DMSO control,"ESC-T cells [2]; 100 μM DHEA, 50 μM 6AN",drastic decrease
same,Proliferation by EdU geometric mean fluorescence intensity (flow cytometry),ESC-T cells [2]; 4 independent experiments,decreases proliferation of ESC-Ts in a concentration dependent manner
same,Reduction in average pup/litter size,"ICR female mice [3]; 6-AN pellet, not significant from control (p=0.4)",37.7%
same,Average time to first litter,"ICR female mice [3]; intrauterine pellet: DHEA 1.5 mg/60 days, 6-AN 150, 15, 1.5 mcg/60 days, controls 27 days",34 days
same,Prp mRNA expression,murine ESCs,decreased Prp expression
same,Metabolism of glucose labeled at the C-1 position (14CO2),hESC-Ts; [5],lower in the decidualized cells exposed to 6-AN in a concentration dependent manner
same,Metabolism of the 6-C labeled glucose (14CO2),hESC-Ts; [5],not affected
same,Glycolytic flux of 5-3H labeled glucose,hESC-Ts; decidualized cells with 5 μM 6-AN,returned almost to the same levels as the control
same,Ratio of 1-C:6-C (relative preference of the PPP),hESC-Ts; presence of 6-AN,decreasing
"N[C@H]1C(O)O[C@H](CO)[C@@H](O)[C@@H]1O (some centres unmarked) [GlcN, glucosamine]","mRNA expression of prolactin, somatostatin, interleukin-15, left-right determination factor 2, tissue inhibitor of metalloproteinase 3","ESC-T cells [1]; GlcN 2.5 or 5 mM, quantitative RT-PCR",significantly lower expression levels
same,Expression levels of PRL and SMST over time,"ESC-T cells [1]; GlcN, day 3 through day 9",decreased the expression levels
same,G6PDH activity vs control cells,G6PDH,significantly lower
same,"mRNA expression of prolactin, somatostatin, interleukin-15, left-right determination factor 2, tissue inhibitor of metalloproteinase 3","human primary ESCs; GlcN, day 9 of culture",significantly lower expression levels
same,Live pups per litter,ICR female mice [4],4.23 pups/litter
same,Viability / proliferation,ESC-T,viability similar to control cells
